Converted amounts (≈) assume the structure as drawn. The source made the active and inactive calls. The calls are words filed in the database; no cut-off is given here.

What is called MIC is the least concentration at which growth counts as inhibited. Read a low MIC as a more susceptible organism.

Format in all cases: functional
Assay [1] has as its system Staphylococcus aureus. In words: Antimicrobial activity against methicillin-resistant Staphylococcus aureus after 20 hrs by liquid microdilution method. (In general: Dilution methods test growth across graded concentrations, often in twofold steps.)
In assay [2] the test system is Staphylococcus aureus. In words: Potentiation of streptomycin antimicrobial activity against methicillin-resistant Staphylococcus aureus at 10 ug/ml after 20 hrs by liquid microdilution method.
The test system of assay [3] is Staphylococcus aureus. In words: Potentiation of tetracycline antimicrobial activity against methicillin-resistant Staphylococcus aureus at 10 ug/ml after 20 hrs by liquid microdilution method.

Regarding `CC(C)=CCC/C(C)=C/CC/C(C)=C\COC(COP(=O)(O)O[C@H]1O[C@H](C(N)=O)[C@H](O)[C@H](O)[C@H]1O)C(=O)O` (some centres not stated), the outcome in the assay with Staphylococcus aureus [1] was inactive.

In the assay on Staphylococcus aureus [1], `C[C@@H](O)[C@H]1C(=O)N2C(C(=O)O)=C(SCCNC=N)C[C@H]12` [IMIPENEM ANHYDROUS] showed an MIC of 16 µg/mL (≈ 53.4 µM).

Take `CN[C@@H]1[C@H](O[C@H]2[C@H](O[C@H]3[C@H](O)[C@@H](O)[C@H](N=C(N)N)[C@@H](O)[C@@H]3N=C(N)N)O[C@@H](C)[C@]2(O)C=O)O[C@@H](CO)[C@H](O)[C@H]1O` [STREPTOMYCIN]: the “fractional inhibitory concentration index (FICI)” value in the assay with Staphylococcus aureus [2] was determined as 1. Besides, the MIC with Staphylococcus aureus [1] stood at 2 µg/mL (≈ 3.44 µM).

`CN(C)[C@@H]1C(O)=C(C(N)=O)C(=O)[C@@]2(O)C(O)=C3C(=O)c4c(O)cccc4[C@@](C)(O)[C@H]3C[C@@H]12` [TETRACYCLINE]: 32 µg/mL (≈ 72 µM) was the least that counted as inhibitory against Staphylococcus aureus [1] (MIC). In addition, the “fractional inhibitory concentration index (FICI)” value in the assay with Staphylococcus aureus [3] worked out at 1.

The compound `CN[C@H](CC(C)C)C(=O)N[C@H]1C(=O)N[C@@H](CC(N)=O)C(=O)N[C@H]2C(=O)N[C@H]3C(=O)N[C@H](C(=O)N[C@H](C(=O)O)c4cc(O)cc(O)c4-c4cc3ccc4O)[C@H](O)c3ccc(c(Cl)c3)Oc3cc2cc(c3O[C@@H]2O[C@H](CO)[C@@H](O)[C@H](O)[C@H]2O[C@H]2C[C@](C)(N)[C@H](O)[C@H](C)O2)Oc2ccc(cc2Cl)[C@H]1O` [VANCOMYCIN] came in with an MIC with Staphylococcus aureus [1] of 0.5 µg/mL (≈ 0.345 µM).

The record behind these values is ChEMBL document CHEMBL2321844, “Discovery of nosokophic acid, a predicted intermediate of moenomycins, from nosokomycin-producing Streptomyces sp. K04-0144” (2013).
